From patent publication US6403643B1, “Use of 2,5-dihydroxybenzenesulfonic derivatives for the normalization of endothelial function” (Laboratories del Dr. Esteve, S.A., priority 1997, dated 2002)

Experiments:
[1] = system: endothelium; assay: Endothelium-dependent vascular relaxation in normal animals and animals with vitamin D2-induced vascular aging (background statement); settings: normal animals and animals with vascular aging produced by high doses of vitamin D2
Description: This effect is observed both in normal animals and in those in which vascular aging has been produced experimentally by means of the administration of high doses of vitamin D2. This activity of calcium dobesilate, of ethamsylate and of persilate may be reflected in man by effects which are therapeutically useful. […] Rosen, “The Pharmacology of Sexual Function and Dysfunction”, edited by J. Bancroft, Elsevier Sc., 1995, cages 277-287). The normalization of the endothelial function obtained with calcium dobesilate, ethamsylate and persilate can represent an entirely novel therapeutic approach to the problem of impotence (I. Saenz de Tejada et al., N. Engl. J. Med., 1989, 320, 1025-1030), both in patients with vascular disorders with various causes (diabetes, arteriosclerosis, and the like) and in patients where only a functional disorder can be detected.

[2] = system: aortas originating from the treated rabbits; assay: Protective effect on the endothelium: relaxation of noradrenalin-contracted aortas from rabbits with vitamin D2 overdose; type: in vivo, rabbit; settings: 10^−6M noradrenalin, calcium dobesilate between 10^−11M and 10^−5M on the artery
Procedure: The protective effect on the endothelium with calcium dobesilate was studied in the rabbit.
To do this, the arterial endothelium in rabbits is damaged by a daily treatment with an overdose of vitamin D2 and three groups of animals are used in the study:
II—Hypervitaminosis D2+50 mg/kg/day calcium dobesilate.
The studies are carried out with arteries originating from the treated rabbits by measuring the effect on the contraction of the aorta maintained with 10^−6M noradrenalin.
Calcium dobesilate (between 10^−11M and 10^−5M) relaxes in a dose-dependent way the contraction due to noradrenalin. The least relaxation corresponds to the hypervitaminosis D2 group (group I), whereas the maximum relaxation is obtained with the aortas of the group treated with calcium dobesilate (group II).
The maximum relaxation obtained for each group was as follows: […]

[3] = system: aortas isolated from male rabbits; assay: Effect on the noradrenalin concentration/effect curve in aorta with and without endothelium; type: cell-based, rabbit; settings: concentration of 10^−6M
Procedure: (§1) The studies were carried out by using the aortas isolated from male rabbits according to the techniques described by A. Quintana et al. (Europ. J. Pharmacol., 1978, 53, 113-116) and by the group from the University of Edinburgh (Pharmacological Experiments on Isolated Preparations, Edinburgh, Livingstone, 1970). The aortas isolated without the endothelium are prepared according to the technique described by R. Furchgott et al. (J. Cardiol. Pharmacol., 1984, 6, p. 336-p. 343).
3) Effect on the noradrenalin concentration/effect curve.
In arteries with the intact endothelium, calcium dobesilate at a concentration of 10^−6M inhibits a 44% the contraction obtained with 10 ^−4M noradrenalin.

[4] = system: aortas isolated from male rabbits; assay: Relaxation of the contraction of isolated aorta maintained with 10^−6 M noradrenalin (in vitro); type: cell-based, rabbit; settings: aorta contraction maintained with 10^−6 M noradrenalin; concentrations between 10^−4M and 10^−11M
Procedure: as §1
1) Effect on the contraction of the aorta maintained with 10^−6 M noradrenalin.
Calcium dobesilate relaxes the contraction of noradrenalin in a way dependent on the concentration (between 10^−4M and 10^−11M). The maximum relaxation was 70%.

[5] = system: aortas isolated from male rabbits; assay: Effect on the basal tension in aorta arteries with and without endothelium (basal tension 2 grams); type: cell-based, rabbit; settings: concentrations between 10^−8M and 10^−4
Procedure: as §1
2) Effect on the basal tension in the aorta arteries with and without endothelium (basal tension=2 grams).
Calcium dobesilate at concentrations between 10^−8M and 10^−4 relaxes, in a dose-dependent way, the aortas subjected to a basal tension of 2 grams. The maximum relaxation was 44% for the arteries with endothelium and 48% for the arteries without endothelium.

Compound | effects on the endothelium [1] | maximum relaxation of the contraction due to noradrenalin ([2]; aortas of Group I (hypervitaminosis D2)) [%] | maximum relaxation of the contraction due to noradrenalin ([2]; aortas of Group II (hypervitaminosis D2 + 50 mg/kg/day calcium dobesilate)) [%] | maximum relaxation of the contraction due to noradrenalin ([2]; aortas of Group O (control rabbits)) [%] | inhibition of the contraction obtained with 10^−4M noradrenalin ([3]; arteries with the intact endothelium) [%] | effect on the noradrenalin concentration/effect curve ([3]; arteries without endothelium) | maximum relaxation of the contraction of noradrenalin [4] [%] | maximum relaxation of basal tension ([5]; arteries with endothelium) [%] | maximum relaxation of basal tension ([5]; arteries without endothelium) [%]
CCNCC.O=S(=O)(O)c1cc(O)ccc1O [ethamsylate, Diethylamine 2,5-dihydroxybenzenesulfonate] | facilitating endothelium-dependent vascular relaxation | – | – | – | – | – | – | – | –
CCNCC.CCNCC.O=S(=O)(O)c1cc(O)c(S(=O)(=O)O)cc1O [persilate, Bis(diethylamine) 2,5-dihydroxybenzene-1,4-disulfonate] | facilitating endothelium-dependent vascular relaxation | – | – | – | – | – | – | – | –
Calcium 2,5-dihydroxybenzenesulfonate [calcium dobesilate] | facilitating endothelium-dependent vascular relaxation | 52 | 100 | 69 | 44 | no modification of the curve | 70 | 44 | 48
